Like-named read-outs stand apart in the source and are kept apart here.
What was measured:
[1] = test system: U937, human monocytic cells; assay: Cytostatic assay, U937; format: cell-based; conditions: U-937, Table 2
Method: (§1) To each well of a 96-well microtiter plate were added 5-7.5×10^4 cells and a given amount of the test compound. The cells were allowed to proliferate for 48 h to 96 h (depending on the nature of the cell line) at 37° C. in a humidified CO2-controlled atmosphere. At the end of the incubation period, the cells were counted in a Coulter Counter (Coulter Electronics Ltd, Harpenden Herts, United Kingdom).

CEM cells = assay: Cytostatic assay, CEM; format: cell-based; conditions: Homo sapiens, CCRF-CEM
Method: as §1

[2] = test system: LNCaP (UZ) prostate cancer cells; assay: Cytostatic assay, LNCaP (UZ); format: cell-based; conditions: Homo sapiens, Table 4
Method: as §1

[3] = test system: OST TK- osteosarcoma cells; assay: Cytostatic assay, OST TK-; format: cell-based; conditions: Homo sapiens; Table 3
Method: as §1

[4] = test system: 293T embryonic kidney cells; assay: Cytostatic assay, 293T; format: cell-based; conditions: Homo sapiens, HEK-293T; Table 3
Method: as §1

MT-2 cells = assay: Cytostatic assay, MT-2; format: cell-based; conditions: Homo sapiens, MT2; Table 2
Method: as §1

[5] = test system: MCF-7 mammary carcinoma cells; assay: Cytostatic assay, MCF-7; format: cell-based; conditions: Homo sapiens, MCF7; Table 3
Method: as §1

[6] = test system: HT29 colorectal carcinoma cells; assay: Cytostatic assay, HT29; format: cell-based; conditions: Homo sapiens, HT-29; Table 3
Method: as §1

[7] = test system: HEL embryonic lung fibroblast cells; assay: Cytostatic assay, HEL; format: cell-based; conditions: Homo sapiens, Table 3
Method: as §1

[8] = test system: Raji, human B-lymphoma cells; assay: Cytostatic assay, Raji; format: cell-based; conditions: Table 2
Method: as §1

[9] = test system: Caki-2 kidney carcinoma cells; assay: Cytostatic assay, Caki-2; format: cell-based; conditions: Homo sapiens, Table 3
Method: as §1

C8166 cells = assay: Cytostatic assay, C8166; format: cell-based; conditions: Homo sapiens, Table 2
Method: as §1

[10] = test system: BAEC aortic endothelial cells; assay: Cytostatic assay, BAEC; format: cell-based, bovine; conditions: Bos taurus, Table 3
Method: as §1

[11] = test system: Caki-1 kidney carcinoma cells; assay: Cytostatic assay, Caki-1; format: cell-based; conditions: Homo sapiens, Table 3
Method: as §1

[12] = test system: PC-3 (UZ) prostate cancer cells; assay: Cytostatic assay, PC-3 (UZ); format: cell-based; conditions: Table 4
Method: as §1

[13] = test system: PC3 (rega) prostate cancer cells; assay: Cytostatic assay, PC3 (rega); format: cell-based; conditions: Table 4
Method: as §1

Molt4/C8 cells = assay: Cytostatic assay, Molt4/C8; format: cell-based; conditions: Table 2
Method: as §1

PLC/PRF/5 hepatoma cells = assay: Cytostatic assay, PLC/PRF/5; format: cell-based; conditions: Homo sapiens, Table 4
Method: as §1

MT-4 cells = assay: Cytostatic assay, MT-4; format: cell-based; conditions: Homo sapiens, MT4; Table 2
Method: as §1

[14] = test system: DU145 (UZ) prostate cancer cells; assay: Cytostatic assay, DU145 (UZ); format: cell-based; conditions: Homo sapiens, DU-145; Table 4
Method: as §1

[15] = test system: HeLa cervix carcinoma cells; assay: Cytostatic assay, HeLa; format: cell-based, human; conditions: Homo sapiens; Table 3; read-out: Cytostatic activity (μM) Hela
Method: as §1

HUT-78 cells = assay: Cytostatic assay, HUT-78; format: cell-based; conditions: Homo sapiens, HuT78; Table 2
Method: as §1

Huh-7 hepatoma cells = assay: Cytostatic assay, Huh-7; format: cell-based; conditions: Homo sapiens, Table 4
Method: as §1

U87 glioma cells = assay: Cytostatic assay, U87; format: cell-based; conditions: Homo sapiens, U-87 MG; Table 3
Method: as §1

[16] = test system: HL60, human leukemia cells; assay: Cytostatic assay, HL-60; format: cell-based; conditions: Table 2
Method: as §1

[17] = test system: FM3A mammary carcinoma cells; assay: Cytostatic assay, FM3A; format: cell-based, murine; conditions: Mus musculus, Table 3
Method: as §1

HepG2C3A hepatoma cells = assay: Cytostatic assay, HepG2C3A; format: cell-based; conditions: Homo sapiens, HepG2/C3A; Table 4
Method: as §1

[18] = test system: THP-1, human monocytic cells; assay: Cytostatic assay, THP-1; format: cell-based; conditions: Table 2
Method: as §1

[19] = test system: 22Rv1 (UZ) prostate cancer cells; assay: Cytostatic assay, 22Rv1 (UZ); format: cell-based; conditions: Homo sapiens, Table 4
Method: as §1

BPH-1 (UZ) = assay: Cytostatic assay, BPH-1 (UZ); format: cell-based; conditions: Homo sapiens, Table 4
Method: as §1

Sup T1 cells = assay: Cytostatic assay, Sup T1; format: cell-based; conditions: Homo sapiens, Table 2, read-out: Cytostatic activity (μM) Sup T 1
Method: as §1

[20] = test system: PNT1A (UZ) prostate cells; assay: Cytostatic assay, PNT1A (UZ); format: cell-based; conditions: Homo sapiens, Table 4
Method: as §1

L1210 cells = assay: Cytostatic assay, L1210; format: cell-based; conditions: Mus musculus, Table 2
Method: as §1

[21] = Table 1a, read-out: IC50 μM (CEM)
[22] = Table 2, read-out: Cytostatic activity (μM) CEM

Row | IC50 [1] | IC50 (CEM cells; [21]) | IC50 (CEM cells; [22]) | IC50 [2] | IC50 [3] | IC50 (MT-2 cells) | IC50 [5] | IC50 [6] | IC50 [8] | IC50 [9] | IC50 (C8166 cells) | IC50 [10] | IC50 [11] | IC50 [12] | IC50 [13] | IC50 (Molt4/C8 cells) | IC50 (PLC/PRF/5 hepatoma cells) | Compound | IC50 [4] | IC50 [7] | IC50 (MT-4 cells) | further results
1 | > 200 µM | 50 µM | 50 ± 6.4 µM | 7.4 ± 0.75 µM | ≥ 111 µM | 38 ± 15 µM | 71 ± 30 µM | > 100 µM | > 100 µM | > 200 µM | ≥ 200 µM | > 100 µM | 7.7 ± 0.5 µM | 12 ± 5.5 µM | 6.3 ± 4.7 µM | 47 ± 15 µM | > 100 µM | COC(=O)c1cc(CCc2cccnc2)sc1N [TR597, 2-Amino-5-(2-pyridin-3-yl-ethyl)-thiophene-3-carboxylic acid methyl ester] | > 100 µM | ≥ 100 µM | > 100 µM | IC50 [14]: 60 ± 21 µM; IC50 [15]: 170 ± 25 µM; IC50 (HUT-78 cells): 59 ± 33 µM; IC50 (Huh-7 hepatoma cells): 78 ± 32 µM; IC50 (U87 glioma cells): > 100 µM; IC50 [16]: 63 ± 15 µM; IC50 [17]: 164 ± 30 µM; IC50 (HepG2C3A hepatoma cells): > 100 µM; IC50 [18]: > 200 µM; IC50 [19]: ≥ 100 µM; IC50 (BPH-1 (UZ)): > 100 µM; IC50 (Sup T1 cells): 147 ± 66 µM; IC50 [20]: > 100 µM; IC50 (L1210 cells): 235 ± 49 µM
2 | 82 ± 7.1 µM | 55 µM | 55 µM | 9.7 ± 5.1 µM | 45 ± 4.2 µM | 103 ± 52 µM | 29 ± 20 µM | 43 ± 1.4 µM | 59 ± 11 µM | 28 ± 18 µM | 149 ± 14 µM | 38 ± 2.1 µM | 39 ± 2.1 µM | 28 ± 4.9 µM | 26 ± 8.5 µM | 39 ± 8 µM | 36 ± 4.2 µM | COC(=O)c1cc(-c2ccccc2OC)sc1N [TR581, 2-Amino-5-(2-methoxy-phenyl)-thiophene-3-carboxylic acid methyl ester] | 72 ± 4.9 µM | 24 ± 2.1 µM | 36 ± 15 µM | IC50 [14]: 35 ± 6.4 µM; IC50 [15]: 41 ± 4.9 µM; IC50 (HUT-78 cells): 152 ± 44 µM; IC50 (Huh-7 hepatoma cells): 59 ± 17 µM; IC50 (U87 glioma cells): 42 ± 5.7 µM; IC50 [16]: 16 ± 3.5 µM; IC50 [17]: 275 ± 206 µM; IC50 (HepG2C3A hepatoma cells): 38 ± 27 µM; IC50 [18]: 69 ± 13 µM; IC50 [19]: 42 ± 7.6 µM; IC50 (BPH-1 (UZ)): 50 ± 5.7 µM; IC50 (Sup T1 cells): 45 ± 31 µM; IC50 [20]: 58 ± 13 µM; IC50 (L1210 cells): 204 ± 85 µM
3 | 17 ± 2.8 µM | 16 µM | 16 ± 17 µM | 0.83 ± 0.35 µM | 27 ± 18 µM | 6.8 ± 3.7 µM | 114 ± 62 µM | 34 ± 6.4 µM | 36 ± 21 µM | 28 ± 27 µM | 57 ± 56 µM | 38 ± 2.1 µM | 1.9 ± 0.42 µM | 4.2 ± 0.14 µM | 1.8 ± 2 µM | 1.4 ± 0.8 µM | 37 ± 0.71 µM | COc1ccc(CCc2cc(C#N)c(N)s2)cc1 [TR586, 2-Amino-5-[2-(4-methoxy-phenyl)-ethyl]-thiophene-3-carbonitrile] | 28 ± 3.5 µM | > 100 µM | 74 ± 37 µM | IC50 [14]: 8.3 ± 2.5 µM; IC50 [15]: 21 ± 9.9 µM; IC50 (HUT-78 cells): 17 ± 8.1 µM; IC50 (Huh-7 hepatoma cells): > 100 µM; IC50 (U87 glioma cells): > 100 µM; IC50 [16]: 1.9 ± 0.42 µM; IC50 [17]: 34 ± 23 µM; IC50 (HepG2C3A hepatoma cells): 46 ± 13 µM; IC50 [18]: 4.3 ± 0.6 µM; IC50 [19]: 17 ± 8.1 µM; IC50 (BPH-1 (UZ)): 59 ± 18 µM; IC50 (Sup T1 cells): 79 ± 42 µM; IC50 [20]: 38 ± 14 µM; IC50 (L1210 cells): 14 ± 4 µM
4 | 0.92 ± 0.08 µM | 0.76 µM | 0.76 ± 0.48 µM | 0.35 ± 0.064 µM | 0.51 ± 0.42 µM | 0.7 ± 0.3 µM | 0.83 ± 0.35 µM | 1.7 ± 0.14 µM | 1.8 ± 0.42 µM | 3.2 ± 2.4 µM | 0.82 ± 0.16 µM | 0.93 ± 0.67 µM | 1.4 ± 0.5 µM | 0.52 ± 0.007 µM | 0.33 ± 0.099 µM | 1.1 ± 1 µM | 0.26 ± 0.15 µM | CCOC(=O)c1cc(CCc2cc(OC)ccc2OC)sc1N [TR587, 2-Amino-5-[2-(2,5-dimethoxy-phenyl)-ethyl]-thiophene-3-carboxylic acid ethyl ester] | 1 ± 0.11 µM | 0.27 ± 0.22 µM | 1.7 ± 0.59 µM | IC50 [14]: 1.4 ± 0.21 µM; IC50 [15]: 0.33 ± 0.028 µM; IC50 (HUT-78 cells): 0.43 ± 0.24 µM; IC50 (Huh-7 hepatoma cells): 0.71 ± 0.35 µM; IC50 (U87 glioma cells): 1.6 ± 1.1 µM; IC50 [16]: 0.46 ± 0.35 µM; IC50 [17]: 2 ± 0.28 µM; IC50 (HepG2C3A hepatoma cells): 1.1 ± 0.49 µM; IC50 [18]: 0.71 ± 0.18 µM; IC50 [19]: 0.19 ± 0.11 µM; IC50 (BPH-1 (UZ)): 0.39 ± 0.007 µM; IC50 (Sup T1 cells): 0.54 ± 0.007 µM; IC50 [20]: 0.41 ± 0.028 µM; IC50 (L1210 cells): 1.2 ± 0.4 µM
